Measured values from ChEMBL document CHEMBL1138190, “Synthesis and antibacterial activity of novel C12 vinyl ketolides” (J Med Chem, 2006).
In brackets after ≈: the same amount, converted by molar mass. Activity calls are given as the source filed them. No cut-off for these calls is given here.

Key:
Streptococcus pneumoniae [1] = assay: Antibacterial activity against Streptococcus pneumoniae Mef 3855; type: functional
Streptococcus pneumoniae [2] = assay: Antibacterial activity against Streptococcus pneumoniae Mef 9959; type: functional
Streptococcus pneumoniae [3] = assay: Antibacterial activity against Streptococcus pneumoniae Erm 5399; type: functional
Streptococcus pneumoniae [4] = assay: Antibacterial activity against Streptococcus pneumoniae Erm 10279; type: functional
[5] = tested on: Staphylococcus epidermidis; assay: Antibacterial activity against Staphylococcus epidermidis 14990; type: functional
Streptococcus pneumoniae [6] = assay: Antibacterial activity against Streptococcus pneumoniae Mef 2880; type: functional
Streptococcus pneumoniae [7] = assay: Antibacterial activity against Streptococcus pneumoniae Mef 3449; type: functional
Streptococcus pyogenes = assay: Antibacterial activity against Streptococcus pyogenes 8668; type: functional
Staphylococcus aureus [8] = assay: Antibacterial activity against Staphylococcus aureus 29213; type: functional
Streptococcus pneumoniae [9] = assay: Antibacterial activity against Streptococcus pneumoniae Mef 5654; type: functional
[10] = Plasma half life in Sprague-Dawley rat at 5 mg/kg, iv; type: ADME, organism-based; design: dose 5 mg/kg, route intravenous
Streptococcus pneumoniae [11] = assay: Antibacterial activity against Streptococcus pneumoniae Mef 1566; type: functional
Streptococcus pneumoniae [12] = assay: Antibacterial activity against Streptococcus pneumoniae Mef 9142; type: functional
[13] = Lung-to-plasma AUC ratio in Sprague-Dawley rat at 5 mg/kg, iv; type: ADME, organism-based; design: dose 5 mg/kg, route intravenous; details: lung and plasma
Haemophilus influenzae [14] = assay: Antibacterial activity against Haemophilus influenzae 49247; type: functional
Streptococcus pneumoniae [15] = assay: Antibacterial activity against Streptococcus pneumoniae Mef 5649; type: functional
Streptococcus pneumoniae [16] = assay: Antibacterial activity against Streptococcus pneumoniae Mef 6966; type: functional
Staphylococcus aureus [17] = assay: Antibacterial activity against Staphylococcus aureus 33591; type: functional
Streptococcus pneumoniae [18] = assay: Antibacterial activity against Streptococcus pneumoniae Erm 5554; type: functional
Streptococcus pneumoniae [19] = assay: Antibacterial activity against Streptococcus pneumoniae Erm 3120; type: functional
Streptococcus pneumoniae [20] = assay: Antibacterial activity against Streptococcus pneumoniae Erm 2218; type: functional
Streptococcus pneumoniae [21] = assay: Antibacterial activity against Streptococcus pneumoniae Erm 8919; type: functional
Streptococcus pneumoniae [22] = assay: Antibacterial activity against Streptococcus pneumoniae Mef S 3435; type: functional; details: Streptococcus pneumoniae; read-out: MIC
Streptococcus pneumoniae [23] = assay: Antibacterial activity against Streptococcus pneumoniae Mef 1790; type: functional
Rattus norvegicus [24] = assay: Plasma AUC in Sprague-Dawley rat at 5 mg/kg, iv; type: ADME, organism-based; design: dose 5 mg/kg, route intravenous; details: in vivo
Streptococcus pneumoniae [25] = assay: Antibacterial activity against Streptococcus pneumoniae Erm 6388; type: functional
Streptococcus pneumoniae [26] = assay: Antibacterial activity against Streptococcus pneumoniae Mef 10095; type: functional
Enterococcus faecalis [27] = assay: Antibacterial activity against Enterococcus faecalis bc11148-2; type: functional
Streptococcus pneumoniae [28] = assay: Antibacterial activity against Streptococcus pneumoniae Mef 983; type: functional
Rattus norvegicus [29] = assay: Efficacy against Streptococcus pneumoniae Mef in Sprague-Dawley rat lung infection model at 50 mg/kg; type: functional, organism-based; design: dose 50 mg/kg
Streptococcus pneumoniae [30] = assay: Antibacterial activity against Streptococcus pneumoniae Erm S 4297; type: functional
Streptococcus pneumoniae [31] = assay: Antibacterial activity against Streptococcus pneumoniae 49619; type: functional
Streptococcus pneumoniae [32] = assay: Antibacterial activity against Streptococcus pneumoniae Erm 6849; type: functional
Streptococcus pneumoniae [33] = assay: Antibacterial activity against Streptococcus pneumoniae Erm 4589; type: functional
Enterococcus faecalis [34] = assay: Antibacterial activity against Enterococcus faecalis 29212; type: functional
Streptococcus pneumoniae [35] = assay: Antibacterial activity against Streptococcus pneumoniae Erm 5354; type: functional
Rattus norvegicus [36] = assay: Efficacy against Streptococcus pneumoniae Erm in Sprague-Dawley rat lung infection model at 100 mg/kg; type: functional, organism-based; design: dose 100 mg/kg
[37] = Plasma half life in Sprague-Dawley rat at 15 mg/kg, po; type: ADME, organism-based; design: dose 15 mg/kg, route oral
[38] = Volume of distribution in Sprague-Dawley rat at 5 mg/kg, iv and 15 mg/kg, po; type: ADME, organism-based; details: in vivo, read-out: Vdss
Streptococcus pneumoniae [39] = assay: Antibacterial activity against Streptococcus pneumoniae Mef S 3427; type: functional
Streptococcus pneumoniae [40] = assay: Antibacterial activity against Streptococcus pneumoniae Erm 6396; type: functional
Streptococcus pneumoniae [41] = assay: Antibacterial activity against Streptococcus pneumoniae Mef 4331; type: functional
Streptococcus pneumoniae [42] = assay: Antibacterial activity against Streptococcus pneumoniae Mef 2382; type: functional
Streptococcus pneumoniae [43] = assay: Antibacterial activity against Streptococcus pneumoniae Erm 7985; type: functional
Streptococcus pneumoniae [44] = assay: Antibacterial activity against Streptococcus pneumoniae Erm 4290; type: functional
Streptococcus pneumoniae [45] = assay: Antibacterial activity against Streptococcus pneumoniae Erm 8339; type: functional
Streptococcus pneumoniae [46] = assay: Antibacterial activity against Streptococcus pneumoniae Erm 867; type: functional
[47] = tested on: Staphylococcus epidermidis; assay: Antibacterial activity against Staphylococcus epidermidis f50654; type: functional
Streptococcus pneumoniae [48] = assay: Antibacterial activity against Streptococcus pneumoniae Erm S 4085; type: functional
Streptococcus pneumoniae [49] = assay: Antibacterial activity against Streptococcus pneumoniae 280-962; type: functional
[50] = Oral bioavailability in Sprague-Dawley rat at 15 mg/kg, po; type: ADME, organism-based; details: in vivo
Haemophilus influenzae [51] = assay: Antibacterial activity against Haemophilus influenzae 2762; type: functional
Streptococcus pneumoniae [52] = assay: Antibacterial activity against Streptococcus pneumoniae Mef 1556; type: functional
Rattus norvegicus [53] = assay: Efficacy against Haemophilus influenzae in Sprague-Dawley rat lung infection model at 100 mg/kg; type: functional, organism-based; design: dose 100 mg/kg
Streptococcus pneumoniae [54] = assay: Antibacterial activity against Streptococcus pneumoniae Erm 5590; type: functional
Streptococcus pneumoniae [55] = assay: Antibacterial activity against Streptococcus pneumoniae Erm 5415; type: functional
Streptococcus pneumoniae [56] = assay: Antibacterial activity against Streptococcus pneumoniae 297-749; type: functional
Streptococcus pneumoniae [57] = assay: Antibacterial activity against Streptococcus pneumoniae Erm 8257; type: functional
[58] = Oral bioavailability in Sprague-Dawley rat at 100 mg/kg, po; type: ADME, organism-based; details: in vivo
Streptococcus pneumoniae [59] = assay: Antibacterial activity against Streptococcus pneumoniae Mef 41; type: functional
Streptococcus pneumoniae [60] = assay: Antibacterial activity against Streptococcus pneumoniae Erm 8947; type: functional
[61] = Lung half life in Sprague-Dawley rat at 15 mg/kg, po; type: ADME, organism-based; design: dose 15 mg/kg, route oral
Streptococcus pneumoniae [62] = assay: Antibacterial activity against Streptococcus pneumoniae Mef 953; type: functional
Streptococcus pneumoniae [63] = assay: Antibacterial activity against Streptococcus pneumoniae Mef 4126; type: functional

C=C[C@]12OC(=O)N(CCCCn3cnc(-c4ccc(Cl)nc4)c3)[C@@H]1[C@@H](C)C(=O)[C@H](C)C[C@@](C)(OC)[C@H](O[C@@H]1O[C@H](C)C[C@H](N(C)C)[C@H]1O)[C@@H](C)C(=O)[C@@H](C)C(=O)O[C@@H]2CC
MIC (Streptococcus pneumoniae [1]): ≤ 0.05 µg/mL | MIC (Streptococcus pneumoniae [2]): ≤ 0.05 µg/mL | MIC (Streptococcus pneumoniae [3]): 0.025 µg/mL (≈ 0.0291 µM) | MIC (Streptococcus pneumoniae [4]): 0.025 µg/mL (≈ 0.0291 µM) | MIC [5]: ≤ 0.05 µg/mL | MIC (Streptococcus pneumoniae [6]): ≤ 0.05 µg/mL | MIC (Streptococcus pneumoniae [7]): ≤ 0.05 µg/mL | MIC (Streptococcus pyogenes): ≤ 0.05 µg/mL | MIC (Staphylococcus aureus [8]): ≤ 0.05 µg/mL | MIC (Streptococcus pneumoniae [9]): 0.1 µg/mL (≈ 0.116 µM) | half-life [10]: 1.3 h | MIC (Streptococcus pneumoniae [11]): 0.1 µg/mL (≈ 0.116 µM) | MIC (Streptococcus pneumoniae [12]): 0.1 µg/mL (≈ 0.116 µM) | Kp [13]: 94 | MIC (Haemophilus influenzae [14]): 3.13 µg/mL (≈ 3.65 µM) | MIC (Streptococcus pneumoniae [15]): ≤ 0.05 µg/mL | MIC (Streptococcus pneumoniae [16]): ≤ 0.05 µg/mL | MIC (Staphylococcus aureus [17]): > 50 µg/mL | MIC (Streptococcus pneumoniae [18]): 0.1 µg/mL (≈ 0.116 µM) | MIC (Streptococcus pneumoniae [19]): 0.05 µg/mL (≈ 0.0582 µM) | MIC (Streptococcus pneumoniae [20]): 0.025 µg/mL (≈ 0.0291 µM) | MIC (Streptococcus pneumoniae [21]): 0.025 µg/mL (≈ 0.0291 µM) | MIC (Streptococcus pneumoniae [22]): ≤ 0.05 µg/mL | MIC (Streptococcus pneumoniae [23]): 0.1 µg/mL (≈ 0.116 µM) | AUC (Rattus norvegicus [24]): 2300 ng·h/mL | MIC (Streptococcus pneumoniae [25]): 0.4 µg/mL (≈ 0.466 µM) | MIC (Streptococcus pneumoniae [26]): ≤ 0.05 µg/mL | MIC (Enterococcus faecalis [27]): 0.1 µg/mL (≈ 0.116 µM) | MIC (Streptococcus pneumoniae [28]): 0.1 µg/mL (≈ 0.116 µM) | Activity (Rattus norvegicus [29]): Active | MIC (Streptococcus pneumoniae [30]): 0.025 µg/mL (≈ 0.0291 µM) | MIC (Streptococcus pneumoniae [31]): ≤ 0.05 µg/mL | MIC (Streptococcus pneumoniae [32]): 0.05 µg/mL (≈ 0.0582 µM) | MIC (Streptococcus pneumoniae [33]): 0.025 µg/mL (≈ 0.0291 µM) | MIC (Enterococcus faecalis [34]): ≤ 0.05 µg/mL | MIC (Streptococcus pneumoniae [35]): 0.025 µg/mL (≈ 0.0291 µM) | Activity (Rattus norvegicus [36]): Active | half-life [37]: 1.7 h | Vd [38]: 12 L/kg | MIC (Streptococcus pneumoniae [39]): ≤ 0.05 µg/mL | MIC (Streptococcus pneumoniae [40]): 0.05 µg/mL (≈ 0.0582 µM) | MIC (Streptococcus pneumoniae [41]): 0.1 µg/mL (≈ 0.116 µM) | MIC (Streptococcus pneumoniae [42]): 0.1 µg/mL (≈ 0.116 µM) | MIC (Streptococcus pneumoniae [43]): ≤ 0.013 µg/mL | MIC (Streptococcus pneumoniae [44]): 0.025 µg/mL (≈ 0.0291 µM) | MIC (Streptococcus pneumoniae [45]): 0.2 µg/mL (≈ 0.233 µM) | MIC (Streptococcus pneumoniae [46]): 0.025 µg/mL (≈ 0.0291 µM) | MIC [47]: ≤ 0.05 µg/mL | MIC (Streptococcus pneumoniae [48]): ≤ 0.013 µg/mL | MIC (Streptococcus pneumoniae [49]): ≤ 0.05 µg/mL | bioavailability [50]: 26% | MIC (Haemophilus influenzae [51]): 0.78 µg/mL (≈ 0.909 µM) | MIC (Streptococcus pneumoniae [52]): ≤ 0.05 µg/mL | Activity (Rattus norvegicus [53]): Active | MIC (Streptococcus pneumoniae [54]): 0.025 µg/mL (≈ 0.0291 µM) | MIC (Streptococcus pneumoniae [55]): 0.025 µg/mL (≈ 0.0291 µM) | MIC (Streptococcus pneumoniae [56]): ≤ 0.05 µg/mL | MIC (Streptococcus pneumoniae [57]): ≤ 0.013 µg/mL | bioavailability [58]: 91% | MIC (Streptococcus pneumoniae [59]): 0.1 µg/mL (≈ 0.116 µM) | MIC (Streptococcus pneumoniae [60]): 0.05 µg/mL (≈ 0.0582 µM) | half-life [61]: 1.4 h | MIC (Streptococcus pneumoniae [62]): ≤ 0.05 µg/mL | MIC (Streptococcus pneumoniae [63]): ≤ 0.05 µg/mL
